Laboratory results as given in patent US8569264B2, “Antibacterial 4,5-substituted aminoglycoside analogs having multiple substituents” (ISIS Pharmaceuticals, Inc., priority 2005, dated 2013).
In brackets after ≈: the same amount, converted by molar mass. One block for each compound: values may come before it.

Tests used:
S. Aureus = assay: MIC, S. Aureus; format: cell-based; conditions: for MIC: Staphylococcus aureus
How it was run: (§1)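 Broth microdilution in duplicate, 150 μL: overnight-culture bacteria were added to compound in 4% DMSO in water. Final inoculum was about 10^5–10^6 CFU/well.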

P. vulgaris ATCC 8427 = assay: MIC, P. vulgaris ATCC 8427; format: cell-based; conditions: for MIC: Proteus vulgaris
Description: (§2) The MIC assays are carried out in 150 μL volume in duplicate in 96-well clear flat-bottom plates. The bacterial suspension from an overnight culture growth in appropriate medium is added to a solution of test compound in 4% DMSO in water. Final bacterial inoculum is approximately 10^5-10^6 CFU/well. […] Both ampicillin and tetracycline are used as antibiotic-positive controls in each screening assay for S. pyogenes, E. coli imp-, E. coli, S. aureus, E. faecalis, K. pneumoniae and P. vulgaris. Ciprofloxacin is used as an antibiotic positive control in each screening assay for P. aeruginosa.
(§3) The following compounds were prepared using methods illustrated in the previous examples. The compounds were also examined in standard bacterial assays against E. Coli, S. Aureus, P. aurginosa, K. pneumoniae, P. vulgaris, and A. baumannii to determine activities. Each of the bacterial cultures that are available from ATCC (www.atcc.org) is identified by its ATCC number. A. baumannii is gentamicin sensitive Acinetobacter baumannii #2 from Walter Reed.

K. pneumoniae ATCC 10031 = assay: MIC, K. pneumoniae ATCC 10031; format: cell-based; conditions: for MIC: Klebsiella pneumoniae
Description: as §2, §3

P. aurginosa ATCC 25416 = assay: MIC, P. aurginosa ATCC 25416; format: cell-based
Description: as §2, §3

[1] = test system: gentamicin sensitive Acinetobacter baumannii #2 from Walter Reed; assay: MIC, A. baumannii WReed 2; format: cell-based; conditions: for MIC: Acinetobacter baumannii
Description: as §2, §3

E. Coli = assay: MIC, E. Coli; format: cell-based; conditions: for MIC: Escherichia coli
How it was run: as §1

S. aureus ATCC 13709 = assay: MIC, S. aureus ATCC 13709; format: cell-based; conditions: for MIC: Staphylococcus aureus
Description: as §2, §3

E. coli ATCC 25922 = assay: MIC, E. coli ATCC 25922; format: cell-based; conditions: for MIC: Escherichia coli
Description: as §2, §3

P. aurginosa ATCC 29248 = assay: MIC, P. aurginosa ATCC 29248; format: cell-based
Description: as §2, §3

[2] = test system: Staphylococcus aureus (Smith Strain ATCC 13709); assay: Staphylococcus aureus mouse protection assay; format: in vivo, mice; conditions: Staph Conc. 10^6, 10% Mucin, the 13th table
Description: Two of the novel aminoglycoside compounds of the invention were examined for their anitbacterial activity against staphylococcus aureus. Mice were fed with autoclaved commercial food pellets and sterile water ad libitum. Animals were inoculated intraperitoneally with 0.5 mL/mouse of the indicated concentration of S. aureus (ATCC 13709) containing 10% mucin. There were 10 mice in each treatment group and compounds were administered subcutaneously one and 3 hour after infection. Compounds 15a (R4═R5═CH3) and 15j (R4═H, R5═(CH2)2C6H5)) were used at 75 mg/kg, 37.5 mg/kg, 18.8 mg/kg, 9.4 mg/kg, 4.7 mg/kg, 2.3 mg/kg, 1.17 mg/kg and 0.5 mg/kg. Amakacin, paromomycin and neomycin were used as the positive controls at concentrations of 2 mg/kg, 1 mg/kg and 0.5 mg/kg.
Test compound was administered as an aqueous buffer solution (phosphate buffered saline (PBS), pH=7.4).

[3] = test system: E. coli S30 bacterial extract (pBestLuc firefly luciferase reporter); assay: Coupled bacterial transcription/translation assay; format: biochemical; conditions: Example 106; read-out: Trans/Trans IC50
How it was run: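 Coupled transcription/translation of firefly luciferase from 1 μg pBestLuc (tac promoter) in E. coli S30 extract, with or without test compound. Reaction 35 min at 37° C., then functional luciferase detected by luminescence.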

[4] = biological target: 16S ribosomal subunit RNA target; assay: Mass spectrometry based binding assay (FTICR), 16S; conditions: Example 106
How it was run: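 Binding to the 16S ribosomal subunit RNA target was measured by FTICR mass spectrometry. Ligands or ligand mixtures were prepared at several concentrations in 10 μL of aqueous 100 mM ammonium acetate buffer with 33% isopropyl alcohol. Samples were infused at 1 μL/min into a negative-mode electrospray source, and ions were held 1 sec in an RF-only hexapole. Complex/free RNA ratios versus ligand concentration were fitted to a binding polynomial to obtain KD.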

[5] = biological target: 18S ribosomal subunit RNA target; assay: Mass spectrometry based binding assay (FTICR), 18S; conditions: Example 106
How it was run: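 Ligands at varying concentrations were mixed with 2.5 or 5 μM RNA in 100 mM ammonium acetate with 33% isopropyl alcohol, then analysed by negative-mode ESI-FTICR. Complex/free RNA ion ratios plotted against ligand concentration were fitted to a second- or higher-order binding polynomial to give KD.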

SMILES: NCC1OC(OC2C(CO)OC(OC3C(O)C(N)CC(N)C3OC3OC(CNCCc4ccc(F)cc4)C(O)C(O)C3N)C2O)C(N)C(O)C1O (stereo not shown) [Compound 15o]
MIC S. Aureus (S. Aureus; Example 109): 0.2 to 0.3 µM
MIC P. vulgaris ATCC 8427 (P. vulgaris ATCC 8427; Example 111): >40 µM
MIC K. pneumoniae ATCC 10031 (K. pneumoniae ATCC 10031; Example 111): 0.6 to 1.3 µM
MIC P. aurginosa ATCC 25416 (P. aurginosa ATCC 25416; Example 111): >40 µM
MIC A. baumannii WReed 2 ([1]; Example 111): 10 to 20 µM
MIC E. Coli. (E. Coli; Example 109): 0.6 to 1.2 µM
MIC S. aureus ATCC 13709 (S. aureus ATCC 13709; Example 111): 0.3 to 0.6 µM
MIC E. coli ATCC 25922 (E. coli ATCC 25922; Example 111): 1.3 to 2.5 µM
MIC P. aurginosa ATCC 29248 (P. aurginosa ATCC 29248; Example 111): >40 µM

MIC (S. Aureus; Example 107): 1.3 to 2.5 µM (≈ 0.932 to 1.79 µg/mL)
MIC (P. vulgaris ATCC 8427; ATCC8427, Example 110): 5 to 10 µM (≈ 3.58 to 7.17 µg/mL)
MIC (P. vulgaris ATCC 8427; ATCC8427, Example 111): 2.5 to 5 µM (≈ 1.79 to 3.58 µg/mL)
MIC (K. pneumoniae ATCC 10031; ATCC10031, Example 110): 0.6 to 1.3 µM (≈ 0.43 to 0.932 µg/mL)
MIC (K. pneumoniae ATCC 10031; ATCC10031, Example 111): 0.6 to 1.3 µM (≈ 0.43 to 0.932 µg/mL)
MIC (P. aurginosa ATCC 25416; Example 110): 1.3 to 2.5 µM (≈ 0.932 to 1.79 µg/mL)
MIC (P. aurginosa ATCC 25416; Example 111): 10 to 20 µM (≈ 7.17 to 14.3 µg/mL)
MIC ([1]; Example 110): 2.5 to 5 µM (≈ 1.79 to 3.58 µg/mL)
MIC ([1]; Example 111): 5 to 10 µM (≈ 3.58 to 7.17 µg/mL)
MIC (E. Coli; Example 107): 5 to 10 µM (≈ 3.58 to 7.17 µg/mL)
MIC (S. aureus ATCC 13709; ATCC13709, Example 110): 20 to 40 µM (≈ 14.3 to 28.7 µg/mL)
MIC (S. aureus ATCC 13709; ATCC13709, Example 111): 1.3 to 2.5 µM (≈ 0.932 to 1.79 µg/mL)
MIC (E. coli ATCC 25922; ATCC25922, Example 110): 2.5 to 5 µM (≈ 1.79 to 3.58 µg/mL)
MIC (E. coli ATCC 25922; ATCC25922, Example 111): 5 to 10 µM (≈ 3.58 to 7.17 µg/mL)
MIC (P. aurginosa ATCC 29248; Example 110): 5 to 10 µM (≈ 3.58 to 7.17 µg/mL)
MIC (P. aurginosa ATCC 29248; Example 111): 5 to 10 µM (≈ 3.58 to 7.17 µg/mL)
SMILES: NCC[C@H](O)C(=O)N[C@@H]1C[C@H](N)[C@@H](O[C@H]2O[C@H](CO)[C@@H](O)[C@H](O)[C@H]2N)[C@H](O[C@@H]2O[C@H](CO)[C@@H](O[C@H]3O[C@@H](CN)[C@@H](O)[C@H](O)[C@H]3N)[C@H]2O)[C@H]1O [Compound 67, N-1-haba paromomycin]

SMILES: NC[C@@H]1O[C@H](O[C@H]2[C@@H](O)[C@H](O[C@@H]3[C@@H](O)[C@H](N)C[C@H](N)[C@H]3O[C@H]3O[C@H](CO)[C@@H](O)[C@H](O)[C@H]3N)O[C@@H]2CO)[C@H](N)[C@@H](O)[C@@H]1O [paromomycin, reference compound]
MIC (S. Aureus; Example 106): 3 to 5 µM (≈ 1.85 to 3.08 µg/mL)
# Dead mice/Total mice in group ([2]; 0.5 mg/kg subcutaneously): 10/10
# Dead mice/Total mice in group ([2]; 1 mg/kg subcutaneously): 10/10
# Dead mice/Total mice in group ([2]; 2 mg/kg subcutaneously): 9/10
IC50 [3]: 0.1 µM
MIC (P. vulgaris ATCC 8427; ATCC8427, Example 111): > 40 µM
MIC (K. pneumoniae ATCC 10031; ATCC10031, Example 111): 0.6 to 1.3 µM (≈ 0.369 to 0.8 µg/mL)
MIC (P. aurginosa ATCC 25416; Example 111): > 40 µM
MIC ([1]; Example 111): 2.5 to 5 µM (≈ 1.54 to 3.08 µg/mL)
MIC (E. Coli; Example 106): 20 to 40 µM (≈ 12.3 to 24.6 µg/mL)
MIC (S. aureus ATCC 13709; ATCC13709, Example 111): 10 to 20 µM (≈ 6.16 to 12.3 µg/mL)
MIC (E. coli ATCC 25922; ATCC25922, Example 111): 5 to 10 µM (≈ 3.08 to 6.16 µg/mL)
MIC (P. aurginosa ATCC 29248; Example 111): > 40 µM
Kd [4]: 0.6 µM
Kd [5]: 4.8 µM
